This assay concerns Von Bezold-Jarisch Reflex induced by 5-HT. Description: Von Bezold-Jarisch Reflex induced by 5-HT injected intravenously. The conditions noted are these: rat. The format is in vivo. The source says: The activity of these compounds against 5-HT can be assessed in vivo by measurement of the effect of the compound on the Von Bezold-Jarisch Reflex induced by 5-HT injected intravenously into the rat (see Paintal A.S., Physiol. Rev. 53, 159-227, 1973; J.R. Fozard, Naunyn-Schmiedeberg's Arch. Pharmacol., 326, 1984, 36-44). The transient cardiac slowing arises from an increased afferent vagus activity arising from stimulation by 5-HT of sensory afferent fibers in and around the heart.

Where [1] appears, read: doses of 0.01-0.1 mg/kg given intravenously.
The mark [2] stands for this setting: doses of 0.25-1 mg/kg given orally.

Where a name gives a salt, the structure may show the parent alone.

With `Cc1cc(C)cc(C(=O)OC2CC3CC4CC(C2)N3CC4=O)c1` (stereo not drawn) [endo-8-(3,5-dimethylbenzoyloxy)hexahydro-2,6-methano-2H-quinolizin-3(4H)-one], the “suppression of the Von Bezold-Jarisch Reflex response” value by setting is: under setting [1], “suppressed the response dose-dependently”; under setting [2], “suppressed the response dose-dependently”.

Take `O=C(OC1CC2CC3CC(C1)N2CC3=O)c1c[nH]c2ccccc12` (stereo not drawn) [endo-hexahydro-8-(3-indolylcarbonyloxy)-2,6-methano-2H-quinolizin-3(4H)one hydrochloride]: the “suppression of the Von Bezold-Jarisch Reflex response” value was “suppressed the response dose-dependently” under setting [1] and “suppressed the response dose-dependently” under setting [2].

The values are drawn from patent publication EP0329904A1, “Use of quinolizine and quinolizinone derivatives in the manufacture of medicaments for the treatment of anxiety” (MERRELL DOW PHARMACEUTICALS INC., priority 1988, dated 1989).
